Legend:
[1] = test system: Candida albicans (strain C3); assay: Experimental (mouse) candidiasis, survival ratio; type: in vivo, Candida albicans (strain C3) in male ICR-strain mice; conditions: 1 hr after infection, day-8, groups of 10 mice
Experimental: Male ICR-strain mice, weighing 20-22 g, were used in groups of 10. A 0.2 ml cell suspension of Candida albicans (strain C3) was injected IV via the tail vein, inoculum size being 2.5×10^7 cells/mouse. The test drugs (0.2 ml) were administered IV via the tail vein once at 1 hr after the infection.
The therapeutic effect of the test drugs was expressed as the survival ratio at day-8 after infection.

[2] = Acute toxicity (LD50, IV); conditions: mouse, in vivo, male ICR-strain mice, survivors at day-5, read-out: LD50 (50% lethal dose)
Experimental: An acute toxicity study was carried out with male ICR-strain mice. LD50 (50% lethal dose) was calculated on the basis of the number of survivors at day-5 after IV administration of the drugs.

`C[C@@H]1[C@H](O)[C@@H](C)/C=C/C=C/C=C/C=C/C=C/C=C/C=C/[C@H](O[C@@H]2O[C@H](C)[C@@H](O)[C@H](N)[C@@H]2O)C[C@@H]2O[C@](O)(C[C@@H](O)C[C@@H](O)[C@H](O)CC[C@@H](O)C[C@@H](O)CC(=O)O[C@H]1C)C[C@H](O)[C@H]2C(=O)O` [amphotericin B] gave a Survival ratio ([1]; 0.125 mg/kg IV once) of 0%, a Survival ratio ([1]; 0.25 mg/kg IV once) of 70% and a Survival ratio ([1]; 0.5 mg/kg IV once) of 100%. For the same compound, the LD50 at 120 h [2] was 4.1 mg/kg.
